We go through five compounds from ChEMBL document CHEMBL1817618, “Synthesis and evaluation of dual site inhibitors of 3-deoxy-D-arabino-heptulosonate 7-phosphate synthase” (Bioorg Med Chem Lett, 2011).

The target of experiment [1] is T1, Phospho-2-dehydro-3-deoxyheptonate aldolase (Escherichia coli, UniProt C3TIE2). In words: Competitive inhibition of recombinant Escherichia coli DAH7P synthase using PEP as substrate by Michaelis-Menten equation analysis using UV-visible spectrophotometry.
Experiment [2] concerns the target T1, Phospho-2-dehydro-3-deoxyheptonate aldolase. In words: Inhibition of recombinant Escherichia coli DAH7P synthase.

T1 sequence (C3TIE2 whole entry): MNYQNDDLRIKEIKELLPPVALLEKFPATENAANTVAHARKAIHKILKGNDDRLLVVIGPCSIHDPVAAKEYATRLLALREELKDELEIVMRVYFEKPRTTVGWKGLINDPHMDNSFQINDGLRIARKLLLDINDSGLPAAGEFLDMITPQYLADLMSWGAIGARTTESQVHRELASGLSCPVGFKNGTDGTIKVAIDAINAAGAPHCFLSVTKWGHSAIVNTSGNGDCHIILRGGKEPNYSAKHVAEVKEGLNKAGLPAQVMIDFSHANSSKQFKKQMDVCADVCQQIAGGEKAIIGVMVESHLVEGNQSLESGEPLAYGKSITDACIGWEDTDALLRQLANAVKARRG

Broadly, the Ki is a measure of affinity in units of concentration, obtained from inhibition or displacement. In the case of `O=C(O)/C(=C/P(=O)(O)O)CCCCCBr`, the Ki in experiment [1] was 3.6 µM. For the compound `C/C(=C\P(=O)(O)O)C(=O)O`, the inhibition constant (Ki) in experiment [2] turned out to be 4.7 µM.

For the compound `O=C(O)C(=CCCCCOP(=O)(O)O)CP(=O)(O)O` (mixture of isomers), the inhibition constant Ki in experiment [1] came to 154 µM. Turning to `C=C(CP(=O)(O)O)C(=O)O`, the Ki in experiment [2] was determined as 270 µM. Consider `O=C(O)C(=CP(=O)(O)O)CCCCCOP(=O)(O)O` (mixture of isomers), for which, in experiment [1], the Ki stood at 5.3 µM.
